Experiments:
Cathepsin S = Cathepsin S (UniProt P25774); test: Cathepsin enzyme inhibition assay (fluorogenic peptide substrate Z-Val-Val-Arg-AMC), Cathepsin S; type: biochemical, human and mouse; conditions: enzyme 1 nM, substrate 20 μM, pH 6.5; read-out: CatS IC50
Procedure, shortened: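 Human or mouse cathepsin S (1 nM) was run in 100 mM potassium phosphate pH 6.5 with 5 mM EDTA, 0.001% Triton X-100 and 5 mM DTT. The rise in AMC fluorescence from cleavage was measured, and IC50 values were calculated by standard methods and expressed in μM.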

Cat L = Cat L (UniProt P07711); test: Cathepsin enzyme inhibition assay (fluorogenic peptide substrate Z-Val-Val-Arg-AMC), Cathepsin L; type: biochemical, human and mouse; conditions: enzyme 1 nM, substrate 20 μM, pH 6.5; read-out: CatL IC50
Procedure, shortened: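 Cathepsin L at 1 nM was mixed with compound, then started with 20 μM Z-Val-Val-Arg-AMC in pH 6.5 potassium phosphate with EDTA, Triton X-100 and 5 mM DTT. AMC fluorescence (ex 360/em 465 nm) was followed over 20 min. IC50 is given in μM.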

Structure (SMILES): N#CC1(NC(=O)[C@@H]2C[C@@H](S(=O)(=O)c3ccc(-n4cccn4)cc3Cl)CN2)CC1 [Example 128, (2S,4R)-4-(2-Chloro-4-pyrazol-1-yl-benzenesulfonyl)-pyrrolidine-2-carboxylic acid (1-cyano-cyclopropyl)-amide]
- IC50 (Cathepsin S): 1.4 nM
- IC50 (Cat L): 17300 nM

Structure (SMILES): CC(Oc1ccc(S(=O)(=O)[C@H]2CN[C@H](C(=O)NC3(C#N)CC3)C2)c(Cl)c1)C(F)(F)F (stereo partly drawn) [Example 129, (2S,4R)-4-[2-Chloro-4-(2,2,2-trifluoro-1-methyl-ethoxy)-benzenesulfonyl]-pyrrolidine-2-carboxylic acid (1-cyano-cyclopropyl)-amide]
- IC50 (Cathepsin S): 8 nM
- IC50 (Cat L): 20400 nM

Structure (SMILES): CC(C)(C)OC(=O)N1C[C@H](S(=O)(=O)c2ccc(N3CCC(F)(F)C3)cc2Cl)C[C@H]1C(=O)NC1(C#N)CC1 [Example 130, (2S,4R)-4-[2-Chloro-4-(3,3-difluoro-pyrrolidin-1-yl)-benzenesulfonyl]-2-(1-cyano-cyclopropylcarbamoyl)-pyrrolidine-1-carboxylic acid tert.-butyl ester]
- IC50 (Cathepsin S): 2.4 nM
- IC50 (Cat L): ≥ 25000 nM

Structure (SMILES): CC(=O)N1C[C@H](S(=O)(=O)c2ccc(-n3cccn3)cc2Cl)C[C@H]1C(=O)NC1(C#N)CC1 [Example 131, (2S,4R)-1-Acetyl-4-(2-chloro-4-pyrazol-1-yl-benzenesulfonyl)-pyrrolidine-2-carboxylic acid (1-cyano-cyclopropyl)-amide formiate]
- IC50 (Cathepsin S): 0.9 nM
- IC50 (Cat L): 33900 nM

Structure (SMILES): CC(=O)N1C[C@H](S(=O)(=O)c2ccc(OC(C)C(F)(F)F)cc2Cl)C[C@H]1C(=O)NC1(C#N)CC1 (stereo partly drawn) [Example 132, (2S,4R)-1-Acetyl-4-[2-chloro-4-(2,2,2-trifluoro-1-methyl-ethoxy)-benzenesulfonyl]-pyrrolidine-2-carboxylic acid (1-cyano-cyclopropyl)-amide]
- IC50 (Cathepsin S): 3.8 nM
- IC50 (Cat L): 35000 nM

Structure (SMILES): CC(=O)N1C[C@H](S(=O)(=O)c2ccc(N3CCCCC3)cc2Cl)C[C@H]1C(=O)NC1(C#N)CC1 [Example 133, (2S,4R)-1-Acetyl-4-(2-chloro-4-piperidin-1-yl-benzenesulfonyl)-pyrrolidine-2-carboxylic acid (1-cyano-cyclopropyl)-amide formiate]
- IC50 (Cathepsin S): 0.9 nM
- IC50 (Cat L): 23400 nM

Structure (SMILES): CC(=O)N1C[C@H](S(=O)(=O)c2ccc(F)cc2Cl)C[C@H]1C(=O)NC1(C#N)CC1 [Example 134, (2S,4R)-1-Acetyl-4-(2-chloro-4-fluoro-benzenesulfonyl)-pyrrolidine-2-carboxylic acid (1-cyano-cyclopropyl)-amide]
- IC50 (Cathepsin S): 6.2 nM
- IC50 (Cat L): ≥ 25000 nM

Structure (SMILES): N#CC1(NC(=O)[C@@H]2C[C@@H](S(=O)(=O)c3ccc(N4CCCCC4)cc3Cl)CN2C(=O)C2(C(F)(F)F)CC2)CC1 [Example 135, (2S,4R)-4-(2-Chloro-4-piperidin-1-yl-benzenesulfonyl)-1-(1-trifluoromethyl-cyclopropanecarbonyl)-pyrrolidine-2-carboxylic acid (1-cyano-cyclopropyl)-amide]
- IC50 (Cathepsin S): 0.3 nM
- IC50 (Cat L): 3150 nM

Structure (SMILES): N#CC1(NC(=O)[C@@H]2C[C@@H](S(=O)(=O)c3ccc(N4CCC(F)(F)C4)cc3Cl)CN2)CC1 [Example 136, (2S,4R)-4-[2-Chloro-4-(3,3-difluoro-pyrrolidin-1-yl)-benzenesulfonyl]-pyrrolidine-2-carboxylic acid (1-cyano-cyclopropyl)-amide formiate]
- IC50 (Cathepsin S): 2.2 nM
- IC50 (Cat L): 12600 nM

Structure (SMILES): COC(=O)c1ccc(C(=O)N2C[C@H](S(=O)(=O)c3ccccc3C(F)(F)F)C[C@H]2C(=O)NCC#N)cc1 [Example 137, 4-[(2S,4R)-2-(Cyanomethyl-carbamoyl)-4-(2-trifluoromethyl-benzenesulfonyl)-pyrrolidine-1-carbonyl]-benzoic acid methyl ester]
- IC50 (Cathepsin S): 1 nM
- IC50 (Cat L): ≥ 25000 nM

Structure (SMILES): CCN1CCN(c2ccc(S(=O)(=O)[C@@H]3C[C@@H](C(=O)NC4(C#N)CC4)N(C(=O)OC(C)(C)C)C3)c(Cl)c2)CC1 [Example 138, (2S,4R)-4-[2-Chloro-4-(4-ethyl-piperazin-1-yl)-benzenesulfonyl]-2-(1-cyano-cyclopropylcarbamoyl)-pyrrolidine-1-carboxylic acid tert.-butyl ester]
- IC50 (Cathepsin S): 3.4 nM
- IC50 (Cat L): 28600 nM

Structure (SMILES): CC(C)(C)OC(=O)N1C[C@H](S(=O)(=O)c2ccc(OCCN3CCCCC3)cc2Cl)C[C@H]1C(=O)NC1(C#N)CC1 [Example 139, (2S,4R)-4-[2-Chloro-4-(2-piperidin-1-yl-ethoxy)-benzenesulfonyl]-2-(1-cyano-cyclopropylcarbamoyl)-pyrrolidine-1-carboxylic acid tert.-butyl ester]
- IC50 (Cathepsin S): 7.8 nM
- IC50 (Cat L): ≥ 25000 nM

Structure (SMILES): CCN1CCN(c2ccc(S(=O)(=O)[C@H]3CN[C@H](C(=O)NC4(C#N)CC4)C3)c(Cl)c2)CC1 [Example 140, (2S,4R)-4-[2-Chloro-4-(4-ethyl-piperazin-1-yl)-benzenesulfonyl]-pyrrolidine-2-carboxylic acid (1-cyano-cyclopropyl)-amide formiate]
- IC50 (Cathepsin S): 5.9 nM
- IC50 (Cat L): 24500 nM

Structure (SMILES): CCN1CCN(c2ccc(S(=O)(=O)[C@@H]3C[C@@H](C(=O)NC4(C#N)CC4)N(C(=O)C4(C(F)(F)F)CC4)C3)c(Cl)c2)CC1 [Example 141, (2S,4R)-4-[2-Chloro-4-(4-ethyl-piperazin-1-yl)-benzenesulfonyl]-1-(1-trifluoromethyl-cyclopropanecarbonyl)-pyrrolidine-2-carboxylic acid (1-cyano-cyclopropyl)-amide]
- IC50 (Cathepsin S): 0.6 nM
- IC50 (Cat L): 3460 nM

Structure (SMILES): CCN1CCN(c2ccc(S(=O)(=O)[C@@H]3C[C@@H](C(=O)NC4(C#N)CC4)N(C(=O)C4(C(F)(F)F)CC4)C3)c(Cl)c2)CC1 [Example 142, (2S,4R)-4-[2-Chloro-4-(4-ethyl-piperazin-1-yl)-benzenesulfonyl]-1-(1-trifluoromethyl-cyclopropanecarbonyl)-pyrrolidine-2-carboxylic acid (1-cyano-cyclopropyl)-amide formiate]
- IC50 (Cathepsin S): 0.3 nM
- IC50 (Cat L): 2480 nM

Structure (SMILES): CCN1CCN(c2ccc(S(=O)(=O)[C@@H]3C[C@@H](C(=O)NC4(C#N)CC4)N(C=O)C3)c(Cl)c2)CC1 [Example 143, (2S,4R)-4-[2-Chloro-4-(4-ethyl-piperazin-1-yl)-benzenesulfonyl]-1-formyl-pyrrolidine-2-carboxylic acid (1-cyano-cyclopropyl)-amide]
- IC50 (Cathepsin S): 4.3 nM
- IC50 (Cat L): 28100 nM

Structure (SMILES): N#CC1(NC(=O)[C@@H]2C[C@@H](S(=O)(=O)c3ccc(F)cc3Cl)CN2)CC1 [Example 144, (2S,4R)-4-(2-Chloro-4-fluoro-benzenesulfonyl)-pyrrolidine-2-carboxylic acid (1-cyano-cyclopropyl)-amide]
- IC50 (Cathepsin S): 9.7 nM
- IC50 (Cat L): 28200 nM

Structure (SMILES): N#CC1(NC(=O)[C@@H]2C[C@@H](S(=O)(=O)c3ccc(F)cc3Cl)CN2C(=O)C2(C(F)(F)F)CC2)CC1 [Example 145, (2S,4R)-4-(2-Chloro-4-fluoro-benzenesulfonyl)-1-(1-trifluoromethyl-cyclopropanecarbonyl)-pyrrolidine-2-carboxylic acid (1-cyano-cyclopropyl)-amide]
- IC50 (Cathepsin S): 0.6 nM
- IC50 (Cat L): 11800 nM

Structure (SMILES): N#CC1(NC(=O)[C@@H]2C[C@@H](S(=O)(=O)c3ccc(N4CCCCC4)cc3Cl)CN2C=O)CC1 [Example 146, (2S,4R)-4-(2-Chloro-4-piperidin-1-yl-benzenesulfonyl)-1-formyl-pyrrolidine-2-carboxylic acid (1-cyano-cyclopropyl)-amide formiate]
- IC50 (Cathepsin S): 6.4 nM
- IC50 (Cat L): 25500 nM

Structure (SMILES): N#CC1(NC(=O)[C@@H]2C[C@@H](S(=O)(=O)c3ccc(-n4cccn4)cc3Cl)CN2C(=O)C2(C(F)(F)F)CC2)CC1 [Example 147, (2S,4R)-4-(2-Chloro-4-pyrazol-1-yl-benzenesulfonyl)-1-(1-trifluoromethyl-cyclopropanecarbonyl)-pyrrolidine-2-carboxylic acid (1-cyano-cyclopropyl)-amide]
- IC50 (Cathepsin S): 0.4 nM
- IC50 (Cat L): 13600 nM

Structure (SMILES): N#CC1(NC(=O)[C@@H]2C[C@@H](S(=O)(=O)c3ccc(-n4cccn4)cc3Cl)CN2C=O)CC1 [Example 148, (2S,4R)-4-(2-Chloro-4-pyrazol-1-yl-benzenesulfonyl)-1-formyl-pyrrolidine-2-carboxylic acid (1-cyano-cyclopropyl)-amide]
- IC50 (Cathepsin S): 16 nM
- IC50 (Cat L): ≥ 25000 nM

Structure (SMILES): CC(Oc1ccc(S(=O)(=O)[C@@H]2C[C@@H](C(=O)NC3(C#N)CC3)N(C(=O)C3(C(F)(F)F)CC3)C2)c(Cl)c1)C(F)(F)F (stereo partly drawn) [Example 149, (2S,4R)-4-[2-Chloro-4-(2,2,2-trifluoro-1-methyl-ethoxy)-benzenesulfonyl]-1-(1-trifluoromethyl-cyclopropanecarbonyl)-pyrrolidine-2-carboxylic acid (1-cyano-cyclopropyl)-amide]
- IC50 (Cathepsin S): 0.7 nM
- IC50 (Cat L): 8100 nM

Structure (SMILES): CC(Oc1ccc(S(=O)(=O)[C@@H]2C[C@@H](C(=O)NC3(C#N)CC3)N(C=O)C2)c(Cl)c1)C(F)(F)F (stereo partly drawn) [Example 150, (2S,4R)-4-[2-Chloro-4-(2,2,2-trifluoro-1-methyl-ethoxy)-benzenesulfonyl]-1-formyl-pyrrolidine-2-carboxylic acid (1-cyano-cyclopropyl)-amide]
- IC50 (Cathepsin S): 1.7 nM
- IC50 (Cat L): 27900 nM

Structure (SMILES): CC(C)(C)OC(=O)N1C[C@H](S(=O)(=O)c2ccc(N3CCC(F)(F)CC3)cc2Cl)C[C@H]1C(=O)NC1(C#N)CC1 [Example 152, (2S,4R)-4-[2-Chloro-4-(4,4-difluoro-piperidin-1-yl)-benzenesulfonyl]-2-(1-cyano-cyclopropylcarbamoyl)-pyrrolidine-1-carboxylic acid tert.-butyl ester]
- IC50 (Cathepsin S): 2.2 nM
- IC50 (Cat L): 30800 nM
